Data from patent US7579432B2, “Cyclic peptides as G-protein-coupled receptor antagonists” (Promics Pty Limited, priority 2001, dated 2009).

Experiments:
gut ischemia-reperfusion = assay: Intestinal ischemia-reperfusion injury in rats
Experimental: Female Wistar rats (250-300 g, n=132) were fasted and given only water for 12 h prior to all experiments. Animals were anaesthetised by the intraperitoneal injection of 80 mg kg^−1 ketamine and 10 mg kg^−1 xylazine and throughout the procedure rats were placed on a heating pad to maintain normal body temperature. […] A non-traumatic occlusive device for the artery was fashioned from a silk suture looped though a length of polyethylene tubing. The SMA was occluded by applying traction to the ends of the loop. […] (1) in 5% ethanol or sterile, pyrogen-free saline in 0-2 ml volume. Infusions were made over a 2 min period. […] (1) (0.3, 1, 10 mg kg^−1) was achieved by gavage (0.2 ml saline in 25% ethanol) 60 min prior to SMA occlusion. Intestinal ischemia was induced by clamping the SMA for 30 min, after which the occlusive suture was removed, then reperfusion was monitored for another 120 min. Sham-operated rats were treated in an identical fashion, with the omission of vascular occlusion, and were infused with 0.2 ml of sterile, pyrogen-free saline or gavaged with 0.2 ml of saline in 25% ethanol. Blood samples (50 μL) were collected into heparinised Eppendorf tubes at regular intervals over the 180 min duration of the experiments for the estimation of PMN numbers. In a different series of identical experiments, whole blood was collected at regular intervals over the 180 min and allowed to clot on ice, and serum or plasma samples collected and stored at −20° C. for later measurement of tumour necrosis factor-α (TNF-α), haptoglobin (Hp) and aspartate aminotransferase (AST) concentrations. At the end of the 120 min reperfusion period, the animals were euthanased with an overdose of pentobarbital A section of the occluded ileum was removed, the lumen rinsed with saline, and the intestine was blotted dry, then weighed. Specimens were dried in an oven for 24 hours at 80° C. to obtain the tissue dry weight. Intestinal oedema was determined by assessing the wet and dry tissue weight ratio. Additionally, segments of both ischaemic and normal intestine were harvested and rinsed with saline and immediately fixed in 10% buffered formaldehyde-saline for histological studies.
Blood (50 μL) for PMN counts was placed into heparinised tubes and then layered over an equal volume of Histopaque 1083 (Sigma, U.S.A.), PMNs were isolated and cell number counted on a haemocytometer. Concentrations of PMN's values are presented as mean percentage±SEM of the values obtained immediately prior to SMA occlusion.
Serum TNF-α concentrations were measured using an enzyme-linked immunosorbent assay, (OptEIA, Pharmingen, USA), according to the manufacturers instructions. Concentrations of TNF-α in serum samples were determined by linear regression analysis from the standard curve.
Plasma AST (AST/GOT; Sigma, USA) concentrations were measured according to manufacturers instructions within 48 h of collecting plasma. Plasma AST concentrations were derived from calibration curve. Results are expressed in Sigma-Franke (SF) units/ml.
Specimens were fixed in 10% formaldehyde-saline, embedded in paraffin wax, sectioned serially, and stained with haematoxylin and eosin. Tissues were read and scored by a trained observer in a blinded fashion. The degree of intestinal tissue injury was determined using a previously described graded scale ranging from 0-8 (Chiu et al., 1970).

[1] = test system: lower limb ischemia-reperfusion (I/R); assay: Bilateral hindlimb ischemia-reperfusion injury in rats
Experimental: Rats were subjected to 2 hours bilateral hindlimb ischemia and 4 hours reperfusion. […] (1 mg/kg) i.v., either 10 min before ischemia or 10 min prior to reperfusion, or orally (10 mg/kg) 30 min prior to ischemia. Levels of circulating creatine kinase (CK), lactate dehydrogenase (LDH), alanine and aspartate aminotransferase (ALT/AST), creatinine, blood urea nitrogen (BUN), polymorphonuclear leukocytes (PMNs) and calcium (Ca^++) and potassium (K^+) ions were determined. These biochemical indices are known to reflect tissue or organ injury following I/R events. Other parameters measured included urinary protein levels, muscle edema and myeloperoxidase (MPO) concentrations in the lung, liver and muscle along with liver homogenate TNF-α concentrations.
The study was performed in accordance with guidelines from the National Health & Medical Research Council of Australia, and the experimental protocol approved by the University of Queensland Animal Ethics Committee. Female Wistar rats weighing 250-300 g were fasted overnight before being anaesthetized with the i.p. injection of 6 mg/kg xylazine and 120 mg/kg ketamine. Anesthesia was maintained throughout the study by additional injections of ketamine. […] Bilateral hindlimb ischemia was then induced through the application of latex o-rings (marking rings; Hayes Veterinary Supplies, Brisbane, Australia) above the greater trochanter of each hind limb. Following 2 hours of ischemia, the latex rings were cut and removed and limbs allowed to reperfuse for 4 hours. Six experimental groups were used: • (a) sham-operated, • (b) ischemia-only, • (c) I/R-only, • (d) I/R+C5a antagonist (1 mg/kg, i.v.) administered 10 min prior to ischemia, • (e) I/R+C5a antagonist (10 mg/kg, p.o.) administered 30 min prior to ischemia, and • (f) I/R+C5a antagonist (1 mg/kg, i.v.) administered 10 min prior to reperfusion.
All other groups underwent 2 hours of ischemia and 4 hours of reperfusion. Sham-operated, ischemia-only and I/R groups were infused with 7% ethanol/saline 10 min prior to ischemia, instead of drug. Blood was collected throughout the study from the tail vein, and serum or plasma was stored at either 4° C. or −20° C. for later biochemical assays. Urine was collected over the last hour of the study for the determination of urinary protein levels. At the completion of the experiment, rats were euthanased, and sections of the lungs, liver and gastrocnemius muscle removed and weighed for edema, neutrophil accumulation and liver TNF-α studies.
All experimental results are expressed as means±standard error of the mean (SEM). Data analysis was performed using GraphPad Prism 3.0 software (GraphPad Software, Inc. USA). Statistical comparisons were made to sham-operated and I/R-only groups, using a one-way analysis of variance followed by a Dunnett comparison post-test analysis. Statistical significance was assessed at P<0.05.
Circulating levels of creatine kinase (CK) were measured in serum samples taken immediately after ischemia, following 1, 2 and 3 hours reperfusion, and at the completion of the study using a […] kit (Sigma, St. Louis, USA) according to the manufacturer's instructions. Serum was also taken 10 min after tourniquet release for CK measurement in I/R-only animals. A 1:5 dilution was used for samples taken after 2 hours reperfusion.

[2] = test system: antigen-induced arthritis; assay: Rat monoarticular antigen-induced arthritis; type: in vivo
Experimental: Female Wistar rats (150-250 g) were obtained from the Central Animal Breeding House, University of Queensland. […] Each rat received a subcutaneous injection of this suspension (0.5 mL) on days 1 and 7. On day 12-28, rats were separated into separate cages, and body weight and food and water intake monitored daily. Rats received either ordinary tap water or drinking water containing AcF-[OPdChaWR] (1). […] Rats were euthanased on day 28, and whole blood collected into an Eppendorf tube and allowed to clot on ice. Blood samples were centrifuges (11,000 rpm×3 min) and serum collected and stored at −20° C. until analysis of serum cytokines using an ELISA. Each knee capsule was lavaged with 100 μL saline, and the total cell count determined using a haemocytometer. In addition, an aliquot of the knee joint lavage fluid was dropped onto a glass slide, and allowed to air dry. Once dry, cells were stained with a differential stain (Diff Quick) and a differential cell count was performed using a 40× dry lens microscope. The remaining lavage fluids from each joint were stored at −20° C. until later analysis of intra-articular cytokine levels using an ELISA. Each knee joint was removed and the skin was split with a scalpel blade to allow fixation. Knee samples were stored in 10% buffered formalin for≧10 d. Knees were then rinsed with distilled water and placed in a saturated solution of EDTA solution for 21 d for decalcification before being embedded in paraffin wax. Knee tissue samples were prepared using standard histological techniques as described above in Example 6 and stained using an heamotoxylin and eosin stain. Histological slides were analysed in a blinded fashion. […] In no samples was there evidence of significant bone erosion. Samples of serum and synovial fluid were thawed on the day of ELISA analysis for TNFα and IL-6 levels. Concentrations were determined from a standard curve, using an ELISA as described previously in Example 6.

dermal Arthus reaction = assay: Reverse passive dermal Arthus reaction in the rat; type: in vivo; conditions: intravenous, oral and topical
[3] = I/R + 1 mg/kg i.v. pre-ischemia, 4 hours reperfusion
[4] = I/R + 1 mg/kg i.v. pre-reperfusion, 4 hours reperfusion
[5] = I/R + 10 mg/kg p.o. pre-ischemia, 4 hours reperfusion
[6] = i.v. 1 mg/kg just prior to reperfusion
[7] = prior to ischemia, i.v. 1 mg/kg or orally 10 mg/kg

SMILES: CC(=O)N[C@@H](Cc1ccccc1)C(=O)N[C@H]1CCCNC(=O)[C@H](CCCNC(=N)N)NC(=O)[C@H](Cc2c[nH]c3ccccc23)NC(=O)[C@@H](CC2CCCCC2)NC(=O)[C@@H]2CCCN2C1=O [Compound 1, Ac-Phe-[Orn-Pro-dCha-Trp-Arg]]
- ischemia-reperfusion induced neutropenia (gut ischemia-reperfusion; 1 mg/kg i.v. and 10 mg/kg p.o.): significantly inhibited
- gut ischemia-reperfusion induced plasma aspartate aminotransferase (gut ischemia-reperfusion; 1 mg/kg i.v. and 1,10 mg/kg): significantly reduced
- gut ischemia-reperfusion induced tissue damage (histopathology) (gut ischemia-reperfusion; 1 mg/kg i.v. and 1,10 mg/kg): significantly reduced
- increase in serum haptoglobin levels (gut ischemia-reperfusion; 1 mg/kg i.v. and 1,10 mg/kg p.o.): significantly inhibited
- change in serum TNF-α levels (gut ischemia-reperfusion; 1 mg/kg i.v. and 1-10 mg/kg p.o.): completely inhibited
- ischemia-reperfusion induced neutropenia (gut ischemia-reperfusion; 1 mg/kg p.o.): no inhibition
- Plasma Creatinine [1, 3]: 1.07 ± 0.07 mg/dL
- Proteinuria [1, 3]: 36.4 ± 11.4 mg/dL
- Serum BUN [1, 3]: 23.6 ± 1.6 mg/dL
- Serum Ca++ [1, 3]: 2.46 ± 0.04 mmol/L
- Serum K+ [1, 3]: 6.13 ± 0.18 mmol/L
- Plasma Creatinine [1, 4]: 1.22 ± 0.05 mg/dL
- Proteinuria [1, 4]: 41.2 ± 11.4 mg/dL
- Serum BUN [1, 4]: 22.0 ± 2.2 mg/dL
- Serum Ca++ [1, 4]: 2.45 ± 0.10 mmol/L
- Serum K+ [1, 4]: 5.02 ± 0.32 mmol/L
- Plasma Creatinine [1, 5]: 1.14 ± 0.14 mg/dL
- Proteinuria [1, 5]: 45.8 ± 9.8 mg/dL
- Serum BUN [1, 5]: 21.8 ± 2.1 mg/dL
- Serum Ca++ [1, 5]: 2.49 ± 0.04 mmol/L
- Serum K+ [1, 5]: 5.57 ± 0.58 mmol/L
- MPO activity in hindlimb muscles, lungs and liver vs I/R-only rats ([1]; all 3 drug-treated groups): significant decreases
- circulating PMN numbers vs I/R-only rats ([1]; all 3 drug-treated groups, 4 hours reperfusion): significantly decreased
- adverse effects of the drug alone (changes in injury markers vs sham-operated animals) ([1]; drug alone): no adverse effects
- circulating creatine kinase (CK) levels vs I/R-only rats [1, 6]: significant inhibition
- circulating lactate dehydrogenase (LDH) levels vs I/R-only rats [1, 6]: significant inhibition
- circulating creatine kinase (CK) levels vs I/R-only rats [1, 7]: significantly decreased levels
- circulating lactate dehydrogenase (LDH) levels vs I/R-only rats [1, 7]: significantly decreased levels
- arthritic right knee joint swelling ([2]; given orally on Days −2 to +14): inhibition
- right knee joint IL-6 levels in joint lavage ([2]; oral): inhibition
- right knee joint TNF-α levels in joint lavage ([2]; oral): inhibition
- vascular leakage associated with a dermal Arthus reaction (dermal Arthus reaction; FIG. 1): inhibition
- rise in circulating TNFα associated with a dermal Arthus reaction (dermal Arthus reaction; FIG. 2): inhibition
